pIC50: −log10 of the molar value.
Test system: T. cruzi (amastigotes)
Experiment: T. cruzi amastigote assays
Type: cell-based
Conditions: Trypanosoma cruzi, read-out: T. cruzi cells ED50
In the case of `CCCNC(P(=O)(O)O)P(=O)(O)O` [Compound 21, 1-n-Propylaminomethyl-1,1-bisphosphonic acid], the pIC50 was < 5.00. With `CCCCNC(P(=O)(O)O)P(=O)(O)O` [Compound 22, 1-n-Butylaminomethyl-1,1-bisphosphonic acid] the pIC50 was < 5.00.

Same assay, conditions: Trypanosoma cruzi, read-out: T. cruzi cells ED50, amastigotes; Table 3
With `CCCCCCCNC(P(=O)(O)O)P(=O)(O)O` [Compound 25, 1-n-Heptylaminomethyl-1,1-bisphosphonic acid] the pIC50 was < 5.00. For `O=P(O)(O)C(NC1CCCCC1)P(=O)(O)O` [Compound 31, (Cyclohexylamino)methyl-1,1-bisphosphonic acid], the pIC50 was < 5.00. With `O=P(O)(O)C(NC1CCCC1)P(=O)(O)O` [Compound 30, (Cyclopentylamino)methyl-1,1-bisphosphonic acid] the pIC50 was < 5.00. `CCCCCCCCCCNC(P(=O)(O)O)P(=O)(O)O` [Compound 28, 1-n-Decylaminomethyl-1,1-bisphosphonic acid] gave a pIC50 of 5.28. With `O=P(O)(O)C(CNC1CCCCCC1)P(=O)(O)O` [Compound 48, 1-[(Cycloheptylamino)ethyl] 1,1-bisphosphonic acid] the pIC50 was < 5.00. For `CCCCCNC(P(=O)(O)O)P(=O)(O)O` [Compound 23, 1-n-Pentylaminomethyl-1,1-bisphosphonic acid], the pIC50 was < 5.00. In the case of `CCCCCCNC(P(=O)(O)O)P(=O)(O)O` [Compound 24, 1-n-Hexylaminomethyl-1,1-bisphosphonic acid], the pIC50 was < 5.00. In the case of `CC1CCC(NCC(P(=O)(O)O)P(=O)(O)O)CC1` (stereo not shown) [Compound 49, 1-[(4-methylcyclohexylamino)ethyl] 1,1-bisphosphonic acid], the pIC50 was < 5.00. With `O=P(O)(O)C(CNC1CCCC1)P(=O)(O)O` [Compound 47, 1-[(Cyclopentylamino)ethyl] 1,1-bisphosphonic acid] the pIC50 was < 5.00. For `O=P(O)(O)C(NC1CCCCCC1)P(=O)(O)O` [Compound 32, (Cycloheptylamino)methyl-1,1-bisphosphonic acid], the pIC50 was < 5.00. With `CCCCCCCCNC(P(=O)(O)O)P(=O)(O)O` [Compound 26, 1-n-Octylaminomethyl-1,1-bisphosphonic acid] the pIC50 was < 5.00. In the case of `O=P(O)(O)C(N1CCCCC1)P(=O)(O)O` [Compound 33, (Piperidin-1-yl)methyl-1,1-bisphosphonic acid], the pIC50 was < 5.00. In the case of `CCCCCCCCCNC(P(=O)(O)O)P(=O)(O)O` [Compound 27, 1-n-Nonylaminomethyl-1,1-bisphosphonic acid], the pIC50 was < 5.00.

Test system: T. gondii (tachyzoites)
Experiment: T. gondii tachyzoites assays
Type: cell-based
Conditions: Toxoplasma gondii, read-out: T. gondii cells ED50, tachyzoites; Table 3
With `CCCCCCCCCCCS(=O)(=O)CC(P(=O)(O)O)P(=O)(O)O` [Compound 56, 1-[(n-Undecylsulfonyl)ethyl]-1,1-biphosphonic acid] the pIC50 was 6.28.

Test system: T. gondii (tachyzoites)
Experiment: not given
Conditions: tachyzoites proliferation; cited from earlier work
For `CCCCCCCCCCS(=O)(=O)CC(P(=O)(O)O)P(=O)(O)O` [Compound 18], the “in vitro activity against T. gondii ED50” value is listed as 0.1 µM.

Same assay, conditions: tachyzoites; already published data; ref 47-55 (see b12); cited from earlier work
In the case of `CCCCCCCCCCCCNCC(P(=O)(O)O)P(=O)(O)O` [Compound 14], the “T. gondii growth ED50” value is given as 6.23 µM. For `CCCCCCCCC(F)(P(=O)(O)O)P(=O)(O)O` [Compound 10], the “T. gondii growth ED50” value is given as 2.67 µM. In the case of `CCCCCCNCC(P(=O)(O)O)P(=O)(O)O` [Compound 12], the “T. gondii growth ED50” value is given as 9.4 µM. In the case of `CCCCCCCSCC(P(=O)(O)O)P(=O)(O)O` [Compound 16], the “T. gondii growth ED50” value is given as 0.97 µM. For `CCCCCCCCNCC(O)(P(=O)(O)O)P(=O)(O)O` [Compound 15], the “T. gondii growth ED50” value is listed as 2.0 µM. For `CCCCCCCCCC(F)(P(=O)(O)O)P(=O)(O)O` [Compound 11], the “T. gondii growth ED50” value is listed as > 10.0 µM. In the case of `CCCCCCCCCCS(=O)(=O)CC(P(=O)(O)O)P(=O)(O)O` [Compound 18], the “T. gondii growth ED50” value is listed as 0.11 µM. In the case of `CCCCCCCCCCSCC(P(=O)(O)O)P(=O)(O)O` [Compound 17], the “T. gondii growth ED50” value is given as 1.8 µM. For `CCCCCCCC[S+](C)CC(P(=O)(O)O)P(=O)(O)O.F[B-](F)(F)F` (stereo not shown) [Compound 19], the “T. gondii growth ED50” value is given as 7.0 µM. For `CCCCCCCNCC(P(=O)(O)O)P(=O)(O)O` [Compound 13], the “T. gondii growth ED50” value is given as > 50.0 µM.

Test system: hypervirulent RH strain of T. gondii
Experiment: not given
Conditions: cited from earlier work
For `CCCCCCCSCC(P(=O)(O)O)P(=O)(O)O` [Compound 16], the “effect in combination with statins in in vivo assays” value is given as “strong synergistic effect”.

From article PMC6660996 (Bioorganic & medicinal chemistry, 2019)
